Earlier results as cited in patent US7488791B2, “Mixture of peptides derived from E6 and/or E7 papillomavirus proteins and uses thereof” (priority 2001, dated 2009).
Like-named read-outs stand apart in the source and are kept apart here.

Experiments:
[1] = system: cells from patients; settings: cited from earlier work; for Proliferation of cells from patients infected with HPV, responders/tested: De Gruijl et al.
[2] = system: cells from patients; settings: Kadish et al.; cited from earlier work
[3] = system: cells from patients; settings: Nakagawa et al., cited from earlier work; for Proliferation of cells from patients, responders/tested, normal: normal individuals
[4] = system: cells in the blood; settings: Tsukui et al., 140 HPV16+ patients; cited from earlier work
[5] = system: cells from patients; settings: Luxton et al., cited from earlier work; for Proliferation of cells from patients, responders/tested, normal: normal individuals

In the case of “E7: 67-98: HPV16 E7 peptide, positions 67-98, De Gruijl et al. (LCVQSTHVDIRTLEDLLMGTLGIVCPICSQKP; UniProt P03129 67-98, looked up, fragment)”, the “Proliferation of cells from patients infected with HPV, responders/tested” value (from here on “Proliferation … with HPV, responders/tested”) [1] is given as 17/28 and the “Stimulation of the cells of patients, in words” value ([1]; de Gruijl et al.) is given as “stimulates the cells of a majority of patients”.

For “E6: 62-91: HPV16 E6 peptide, positions 62-91, Kadish et al. (RDGNPYAVCDKCLKFYSKISEYRHYCYSLY; UniProt P03126 62-91, looked up, fragment)”, the “Proliferation of cells from patients (CIN or normal), responders/tested” value [2] is given as 0/30.

In the case of “E7: 72-97: HPV16 E7 peptide, positions 72-97, Kadish et al. (THVDIRTLEDLLMGTLGIVCPICSQK; UniProt P03129 72-97, looked up, fragment)”, the “Proliferation of cells from patients (CIN or normal), responders/tested” value [2] is listed as 19/48.

For “E6: 109-122: HPV16 E6 peptide, positions 109-122, Nakagawa et al. (RCINCQKPLCPEEK; UniProt P03126 109-122, looked up, fragment)”, the “Proliferation of cells from patients, responders/tested, CIN” value (“Proliferation … responders/tested, CIN” below) [3] is listed as 1/22 and the “Proliferation of cells from patients, responders/tested, normal” value (from here on “Proliferation … responders/tested, normal”) [3] is listed as 8/65.

In the case of “E6: 137-151: HPV16 E6 peptide, positions 137-151, Kadish et al. (GRWTGRCMSCCRSSR; UniProt P03126 137-151, looked up, fragment)”, the “Proliferation of cells from patients (CIN or normal), responders/tested” value [2] is listed as 9/23.

In the case of “E6: 59-112: HPV16 E6 peptide, positions 59-112, Tsukui et al. (IVYRDGNPYAVCDKCLKFYSKISEYRHYCYSLYGTTLEQQYNKPLCDLLIRCIN; UniProt P03126 59-112, looked up, fragment)”, the “Secretion of IL2 (activation of cells) by patients, responders/tested” value (shortened to “Secretion of IL2 … responders/tested”) [4] is listed as 6/140.

For “E7: 19-56: HPV16 E7 peptide, positions 19-56, De Gruijl et al. (TTDLYCYEQLNDSSEEEDEIDGPAGQAEPDRAHYNIVT; UniProt P03129 19-56, looked up, fragment)”, the “Proliferation … with HPV, responders/tested” value [1] is listed as 10/28.

In the case of “E6: 4-29: HPV16 E6 peptide, positions 4-29, Nakagawa et al. (KRTAMFQDPQERPRKLPQLCTELQTT; UniProt P03126 4-29, looked up, fragment)”, the “Proliferation … responders/tested, CIN” value [3] is listed as 3/22 and the “Proliferation … responders/tested, normal” value [3] is listed as 12/65.

In the case of “E7: 1-32: HPV16 E7 peptide, positions 1-32, De Gruijl et al.”, the “Proliferation … with HPV, responders/tested” value [1] is given as 8/28.

In the case of `CC[C@H](C)[C@H](NC(=O)[C@@H](NC(=O)[C@@H](NC(=O)[C@H](CCC(N)=O)NC(=O)[C@H](CC(C)C)NC(=O)[C@H](CCC(=O)O)NC(=O)[C@@H](NC(=O)[C@H](CS)NC(=O)[C@H](CC(C)C)NC(=O)[C@H](CCC(N)=O)NC(=O)[C@@H]1CCCN1C(=O)[C@H](CC(C)C)NC(=O)[C@H](CCCCN)NC(=O)[C@@H](N)CCCNC(=N)N)[C@@H](C)O)[C@@H](C)O)[C@@H](C)O)C(=O)N[C@@H](Cc1c[nH]cn1)C(=O)O` [E6 17-31, R K L P Q L C T E L Q T T I H], the “Proliferation of cells from patients (CIN or normal), responders/tested” value [2] is listed as 12/23.

For “E7: 27-60: HPV16 E7 peptide, positions 27-60, Tsukui et al. (QLNDSSEEEDEIDGPAGQAEPDRAHYNIVTFCCK; UniProt P03129 27-60, looked up, fragment)”, the “Secretion of IL2 … responders/tested” value [4] is listed as 4/140.

In the case of “E7: 1-14: HPV16 E7 peptide, positions 1-14, Luxton et al.”, the “Proliferation … responders/tested, CIN” value [5] is given as 0/31 and the “Proliferation … responders/tested, normal” value [5] is given as 1/15.

For “E6: 102-131: HPV16 E6 peptide, positions 102-131, Kadish et al. (PLCDLLIRCINCQKPLCPEEKQRHLDKKQR; UniProt P03126 102-131, looked up, fragment)”, the “Proliferation of cells from patients (CIN or normal), responders/tested” value [2] is given as 14/43.

In the case of “E7: 62-79: HPV16 E7 peptide, positions 62-79, Nakagawa et al. (DSTLRLCVQSTHVDIRTL; UniProt P03129 62-79, looked up, fragment)”, the “Proliferation … responders/tested, CIN” value [3] is listed as 3/22 and the “Proliferation … responders/tested, normal” value [3] is listed as 10/65.

For “E6: 117-131: HPV16 E6 peptide, positions 117-131, Kadish et al. (LCPEEKQRHLDKKQR; UniProt P03126 117-131, looked up, fragment)”, the “Proliferation of cells from patients (CIN or normal), responders/tested” value [2] is listed as 12/23.

For “E6: 111-158: HPV16 E6 peptide, positions 111-158, Tsukui et al. (INCQKPLCPEEKQRHLDKKQRFHNIRGRWTGRCMSCCRSSRTRRETQL; UniProt P03126 111-158, looked up, fragment)”, the “Secretion of IL2 … responders/tested” value [4] is given as 11/140.

In the case of “E7: 70-98: HPV16 E7 peptide, positions 70-98, Luxton et al. (QSTHVDIRTLEDLLMGTLGIVCPICSQKP; UniProt P03129 70-98, looked up, fragment)”, the “Proliferation … responders/tested, CIN” value [5] is listed as 4/31 and the “Proliferation … responders/tested, normal” value [5] is listed as 7/15.

In the case of “E7: 51-98: HPV16 E7 peptide, positions 51-98, Tsukui et al. (HYNIVTFCCKCDSTLRLCVQSTHVDIRTLEDLLMGTLGIVCPICSQKP; UniProt P03129 51-98, looked up, fragment)”, the “Secretion of IL2 … responders/tested” value [4] is given as 7/140.

In the case of “E6: 1-45: HPV16 E6 peptide, positions 1-45, Tsukui et al. (MHQKRTAMFQDPQERPRKLPQLCTELQTTIHDIILECVYCKQQLL; UniProt P03126 1-45, looked up, fragment)”, the “Secretion of IL2 … responders/tested” value [4] is listed as 0/140.

In the case of “E7: 10-24: HPV16 E7 peptide, positions 10-24, Luxton et al. (EYMLDLQPETTDLYC; UniProt P03129 10-24, looked up, fragment)”, the “Proliferation … responders/tested, CIN” value [5] is given as 0/31 and the “Proliferation … responders/tested, normal” value [5] is given as 3/15.

For “E7: 30-44: HPV16 E7 peptide, positions 30-44, Luxton et al. (DSSEEEDEIDGPAGQ; UniProt P03129 30-44, looked up, fragment)”, the “Proliferation … responders/tested, normal” value [5] is listed as 2/31 normal.

In the case of “E6: 42-71: HPV16 E6 peptide, positions 42-71, Kadish et al. (QQLLRREVYDFAFRDLCIVYRDGNPYAVCD; UniProt P03126 42-71, looked up, fragment)”, the “Proliferation of cells from patients (CIN or normal), responders/tested” value [2] is listed as 8/43.

For “E6: 82-111: HPV16 E6 peptide, positions 82-111, Kadish et al. (EYRHYCYSLYGTTLEQQYNKPLCDLLIRCI; UniProt P03126 82-111, looked up, fragment)”, the “Proliferation of cells from patients (CIN or normal), responders/tested” value [2] is listed as 5/34.

In the case of “E7: 44-57: HPV16 E7 peptide, positions 44-57, Nakagawa et al. (QAEPDRAHYNIVTF; UniProt P03129 44-57, looked up, fragment)”, the “Proliferation … responders/tested, CIN” value [3] is listed as 3/22 and the “Proliferation … responders/tested, normal” value [3] is listed as 9/65.

In the case of “E6: 122-151: HPV16 E6 peptide, positions 122-151, Kadish et al. (KQRHLDKKQRFHNIRGRWTGRCMSCCRSSR; UniProt P03126 122-151, looked up, fragment)”, the “Proliferation of cells from patients (CIN or normal), responders/tested” value [2] is listed as 19/48.

In the case of “E7: 62-80: HPV16 E7 peptide, positions 62-80, Kadish et al. (DSTLRLCVQSTHVDIRTLE; UniProt P03129 62-80, looked up, fragment)”, the “Proliferation of cells from patients (CIN or normal), responders/tested” value [2] is listed as 11/35.

In the case of “E7: 55-74: HPV16 E7 peptide, positions 55-74, Luxton et al. (VTFCCKCDSTLRLCVQSTHV; UniProt P03129 55-74, looked up, fragment)”, the “Proliferation … responders/tested, CIN” value [5] is listed as 2/31 and the “Proliferation … responders/tested, normal” value [5] is listed as 1/15.

In the case of “E6: 1-31: HPV16 E6 peptide, positions 1-31, Kadish et al. (MHQKRTAMFQDPQERPRKLPQLCTELQTTIH; UniProt P03126 1-31, looked up, fragment)”, the “Proliferation of cells from patients (CIN or normal), responders/tested” value [2] is listed as 17/48.

For “E7: 21-30: HPV16 E7 peptide, positions 21-30, Nakagawa et al. (DLYCYEQLND; UniProt P03129 21-30, looked up, fragment)”, the “Proliferation … responders/tested, CIN” value [3] is given as 0/22 and the “Proliferation … responders/tested, normal” value [3] is given as 5/65.

In the case of “E7: 1-35: HPV16 E7 peptide, positions 1-35, Tsukui et al.”, the “Secretion of IL2 … responders/tested” value [4] is listed as 3/140.

In the case of “E6: 22-51: HPV16 E6 peptide, positions 22-51, Kadish et al. (LCTELQTTIHDIILECVYCKQQLLRREVYD; UniProt P03126 22-51, looked up, fragment)”, the “Proliferation of cells from patients (CIN or normal), responders/tested” value [2] is given as 17/46.

In the case of “E6: 24-45: HPV16 E6 peptide, positions 24-45, Nakagawa et al. (TELQTTIHDIILECVYCKQQLL; UniProt P03126 24-45, looked up, fragment)”, the “Proliferation … responders/tested, CIN” value [3] is listed as 1/22 and the “Proliferation … responders/tested, normal” value [3] is listed as 15/65.

In the case of “E7: 45-64: HPV16 E7 peptide, positions 45-64, Luxton et al. (AEPDRAHYNIVTFCCKCDST; UniProt P03129 45-64, looked up, fragment)”, the “Proliferation … responders/tested, CIN” value [5] is listed as 2/31 and the “Proliferation … responders/tested, normal” value [5] is listed as 1/15.
